Results from PMC10202359, “Nicotinamide N-methyltransferase (NNMT) regulates the glucocorticoid signaling pathway during the early phase of adipogenesis” (Scientific Reports, 2023).
Read-outs that look alike come from different tables or passages of the source.

Experiments:
SMYD2 = molecular target: T1, SMYD2 (Homo sapiens, UniProt Q9NRG4); test: Methyltransferase Hot Spot radioisotope assay, SMYD2; format: biochemical
T1 construct: purchased Reaction Biology Corporation
Protocol: (§1) CC-410 was screened in biochemical assays for activity against a panel of 11 methyltransferases (MT) by using the radioisotope (3H-AdoMet) based MT Hot Spot Assay. All the assays were performed by Reaction Biology Corporation (RBC, Malven, PA, USA). Briefly CC-410 was incubated with the selected MTs, corresponding substrates, and radiolabeled SAM (S-Adenosyl-L-[methyl-3 H]methionine). The specific MTs assessed, and the corresponding substrates are as follows: DNMT1- Poly dl-dC, DNMT3a- Lambda DNA, DNMT3b- Lambda DNA, DOT1L- Nucleosomes, EZH2 Complex- Core Histone, METTL21A- HSPA8-[CTD], NRMT1- RCC1, PRMT3- Histone H4, PRMT5/MEP50- Histone H2A, SET1b -Core Histone Complex and SMYD2- Nucleosomes. Reaction mixtures were incubated and spotted onto filter papers, which were then washed to remove unreacted SAM, leaving the bound radiolabeled product. Detection of the radiolabeled, methylated product was performed via a nanoliter-scale radioisotope filter binding platform. […] For each assay, control compounds were included as positive controls for enzyme function and assay reproducibility. […] IC50 was calculated by non-linear least square fitting dose–response curve.

C3H10T1/2 cells = test: Oil Red-O staining of adipocyte differentiation, C3H10T1/2; format: cell-based, mouse; conditions: 25 µM, first 48 h of DIM induction or throughout the period of differentiation
Protocol: 3T3-L1 Mouse Embryonic Fibroblasts were purchased from American Type Culture Collection (ATCC CL-173). The cells were propagated and maintained in Dulbecco’s modified Eagle’s medium (DMEM, Gibco) supplemented with 10% calf serum (FCS) at 37 °C in 5% CO2 atmosphere. Subconfluents cells were expanded and utilized for the subsequent experiments at the passages 3–6. To induce differentiation, 2-day post-confluent 3T3-L1 pre-adipocytes were cultured for 48 h with DIM (DMEM supplemented with 10% fetal bovine serum (FBS), 1.0 µM Dexamethasone (G. Biosciences), 1.5 mg/mL Insulin (Sigma) and 0.5 mM IBMX (Sigma). Two days after induction the DIM medium was removed and the cells were maintained in DMED supplemented with 10% FBS and […] Insulin, which was replaced every 48 h, until the cells became fully differentiated (8–10 days after induction). C3H10T1/2 cells were purchased from American Type Culture Collection (ATCC, clone 8, CCL-226, were grown and induced to differentiate following the same protocol, with cell cultures < 3 passages. Oil Red-O staining was used as previously described. Briefly, cells were fixed for 30 min with 4% formaldehyde, stained with filtered Oil Red solution (0.2% oil red in 40% 2-propanol) and washed 5 times with distilled water. […] The dye was eluted with 100% 2-propanol and quantified spectroscopically at 510 nm (Synergy HT, Bio-Tek).

3T3-L1 cells [1] = test: CellTiter-Blue cell viability assay, 3T3-L1; format: cell-based, mouse; conditions: highest concentration (1–25 uM tested), assessed at terminal differentiation
Protocol: CellTiter-Blue® Cell Viability Assay (Promega) was used following the manufacturer’s instructions. 3T3-L1 cells were seeded at a density of 2 × 10^3 cells per well in 96-well plates and cultured till confluence in standard medium. Two-day post-confluent 3T3-L1 cells were induced with DIM and treated with 1, 5, 10 and 25 µM CC-410 along with an untreated control (0.5% DMSO) in 4 different conditions: every 48 h throughout the differentiation period; once in the first 20 h following DIM stimulation; once 48 h after DIM stimulation; or after the early differentiation phase. In all cases, cell viability was assessed at terminal differentiation. Cell viability percentages were calculated by normalizing the fluorescence recorder (560/590) for the treated samples over untreated controls.

DNMT1 = DNMT1 (Homo sapiens, UniProt P26358); test: Methyltransferase Hot Spot radioisotope assay, DNMT1; format: biochemical; conditions: 10-dose, threefold dilution; CC-410 from 300 μM, control from 100 μM; substrate Poly dI-dC
Chain of DNMT1 (P26358 whole entry, species assumed): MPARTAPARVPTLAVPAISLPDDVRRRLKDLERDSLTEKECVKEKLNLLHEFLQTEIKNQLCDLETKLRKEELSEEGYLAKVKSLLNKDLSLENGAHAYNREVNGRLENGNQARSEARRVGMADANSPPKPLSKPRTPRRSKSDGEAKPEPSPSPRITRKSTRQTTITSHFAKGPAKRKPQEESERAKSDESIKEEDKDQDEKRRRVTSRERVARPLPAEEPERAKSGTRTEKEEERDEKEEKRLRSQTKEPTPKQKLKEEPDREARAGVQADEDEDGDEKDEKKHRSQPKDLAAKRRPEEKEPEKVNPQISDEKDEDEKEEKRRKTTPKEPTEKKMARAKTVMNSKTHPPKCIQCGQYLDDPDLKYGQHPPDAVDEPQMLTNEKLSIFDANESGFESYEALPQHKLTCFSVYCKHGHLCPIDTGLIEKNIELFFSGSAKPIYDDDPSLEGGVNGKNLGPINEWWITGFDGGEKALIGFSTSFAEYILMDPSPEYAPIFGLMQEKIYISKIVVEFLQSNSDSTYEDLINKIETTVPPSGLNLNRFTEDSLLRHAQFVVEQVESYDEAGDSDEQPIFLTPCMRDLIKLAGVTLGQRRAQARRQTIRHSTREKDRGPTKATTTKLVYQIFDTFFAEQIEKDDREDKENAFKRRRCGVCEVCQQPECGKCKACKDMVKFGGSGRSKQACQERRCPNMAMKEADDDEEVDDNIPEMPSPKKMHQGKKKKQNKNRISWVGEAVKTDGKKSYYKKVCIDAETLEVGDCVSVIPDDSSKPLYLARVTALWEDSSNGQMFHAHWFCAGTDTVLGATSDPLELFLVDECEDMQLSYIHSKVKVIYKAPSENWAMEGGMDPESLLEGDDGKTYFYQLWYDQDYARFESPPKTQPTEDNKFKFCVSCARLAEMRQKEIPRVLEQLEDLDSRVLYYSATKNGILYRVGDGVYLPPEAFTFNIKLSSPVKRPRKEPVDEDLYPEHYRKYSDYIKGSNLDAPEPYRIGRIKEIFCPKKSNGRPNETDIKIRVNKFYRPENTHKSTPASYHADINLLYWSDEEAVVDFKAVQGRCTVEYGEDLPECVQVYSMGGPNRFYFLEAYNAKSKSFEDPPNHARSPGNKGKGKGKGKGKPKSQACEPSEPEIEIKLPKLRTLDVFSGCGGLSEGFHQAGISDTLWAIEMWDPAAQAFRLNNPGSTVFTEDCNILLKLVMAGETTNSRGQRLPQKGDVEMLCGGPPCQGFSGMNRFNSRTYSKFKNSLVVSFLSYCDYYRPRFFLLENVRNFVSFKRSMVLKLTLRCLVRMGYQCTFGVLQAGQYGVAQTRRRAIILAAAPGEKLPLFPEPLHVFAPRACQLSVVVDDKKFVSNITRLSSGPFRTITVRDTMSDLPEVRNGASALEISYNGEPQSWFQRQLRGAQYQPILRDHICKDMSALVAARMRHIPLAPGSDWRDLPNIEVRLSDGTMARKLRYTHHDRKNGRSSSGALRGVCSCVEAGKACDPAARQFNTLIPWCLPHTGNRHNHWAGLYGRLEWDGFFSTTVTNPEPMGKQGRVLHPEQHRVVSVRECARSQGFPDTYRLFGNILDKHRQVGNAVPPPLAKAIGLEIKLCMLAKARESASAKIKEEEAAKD
Protocol: as §1

DNMT3a = molecular target: T2, DNMT3a (Homo sapiens, UniProt Q9Y6K1); test: Methyltransferase Hot Spot radioisotope assay, DNMT3a; format: biochemical; conditions: 10-dose, threefold dilution; CC-410 from 300 μM, control from 100 μM; substrate Lambda DNA
T2 construct: purchased Reaction Biology Corporation
T2 sequence (Q9Y6K1 whole entry, looked up, species assumed): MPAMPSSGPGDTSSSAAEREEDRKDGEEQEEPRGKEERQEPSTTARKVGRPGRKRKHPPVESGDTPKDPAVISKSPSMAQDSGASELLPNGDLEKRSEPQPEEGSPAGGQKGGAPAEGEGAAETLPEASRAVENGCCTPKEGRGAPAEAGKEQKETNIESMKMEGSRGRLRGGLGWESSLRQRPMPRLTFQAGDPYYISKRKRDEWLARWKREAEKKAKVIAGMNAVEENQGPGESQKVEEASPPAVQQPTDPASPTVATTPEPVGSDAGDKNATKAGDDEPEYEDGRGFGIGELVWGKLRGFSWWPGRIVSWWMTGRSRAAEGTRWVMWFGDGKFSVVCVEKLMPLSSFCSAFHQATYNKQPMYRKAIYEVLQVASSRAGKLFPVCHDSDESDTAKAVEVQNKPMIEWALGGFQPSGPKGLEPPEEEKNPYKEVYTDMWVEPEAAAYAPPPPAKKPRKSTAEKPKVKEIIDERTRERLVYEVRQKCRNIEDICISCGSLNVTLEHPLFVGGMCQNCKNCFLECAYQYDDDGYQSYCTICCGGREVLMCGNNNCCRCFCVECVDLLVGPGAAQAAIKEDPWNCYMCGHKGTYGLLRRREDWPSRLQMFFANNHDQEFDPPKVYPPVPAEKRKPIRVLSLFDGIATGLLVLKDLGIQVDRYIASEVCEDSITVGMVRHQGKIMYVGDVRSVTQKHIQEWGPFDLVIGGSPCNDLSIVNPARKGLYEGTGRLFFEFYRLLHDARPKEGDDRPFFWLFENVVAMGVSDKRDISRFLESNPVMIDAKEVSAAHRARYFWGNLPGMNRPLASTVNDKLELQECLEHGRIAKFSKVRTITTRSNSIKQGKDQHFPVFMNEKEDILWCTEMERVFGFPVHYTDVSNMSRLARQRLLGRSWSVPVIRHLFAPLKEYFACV
Protocol: as §1

DNMT3b = molecular target: T3, DNMT3b (Homo sapiens, UniProt Q9UBC3); test: Methyltransferase Hot Spot radioisotope assay, DNMT3b; format: biochemical; conditions: 10-dose, threefold dilution; CC-410 from 300 μM, control from 100 μM; substrate Lambda DNA
T3 construct: purchased Reaction Biology Corporation
Protocol: as §1

SET1b Complex = molecular target: T4, SET1b Complex (Homo sapiens, UniProt Q9UPS6); test: Methyltransferase Hot Spot radioisotope assay, SET1b Complex; format: biochemical
T4 construct: purchased Reaction Biology Corporation
Protocol: as §1

DOT1L = molecular target: T5, DOT1L (Homo sapiens, UniProt Q8TEK3); test: Methyltransferase Hot Spot radioisotope assay, DOT1L; format: biochemical; conditions: 10-dose, threefold dilution; CC-410 from 300 μM, control from 100 μM; substrate Nucleosomes
T5 construct: purchased Reaction Biology Corporation
T5 sequence (Q8TEK3 whole entry, species assumed): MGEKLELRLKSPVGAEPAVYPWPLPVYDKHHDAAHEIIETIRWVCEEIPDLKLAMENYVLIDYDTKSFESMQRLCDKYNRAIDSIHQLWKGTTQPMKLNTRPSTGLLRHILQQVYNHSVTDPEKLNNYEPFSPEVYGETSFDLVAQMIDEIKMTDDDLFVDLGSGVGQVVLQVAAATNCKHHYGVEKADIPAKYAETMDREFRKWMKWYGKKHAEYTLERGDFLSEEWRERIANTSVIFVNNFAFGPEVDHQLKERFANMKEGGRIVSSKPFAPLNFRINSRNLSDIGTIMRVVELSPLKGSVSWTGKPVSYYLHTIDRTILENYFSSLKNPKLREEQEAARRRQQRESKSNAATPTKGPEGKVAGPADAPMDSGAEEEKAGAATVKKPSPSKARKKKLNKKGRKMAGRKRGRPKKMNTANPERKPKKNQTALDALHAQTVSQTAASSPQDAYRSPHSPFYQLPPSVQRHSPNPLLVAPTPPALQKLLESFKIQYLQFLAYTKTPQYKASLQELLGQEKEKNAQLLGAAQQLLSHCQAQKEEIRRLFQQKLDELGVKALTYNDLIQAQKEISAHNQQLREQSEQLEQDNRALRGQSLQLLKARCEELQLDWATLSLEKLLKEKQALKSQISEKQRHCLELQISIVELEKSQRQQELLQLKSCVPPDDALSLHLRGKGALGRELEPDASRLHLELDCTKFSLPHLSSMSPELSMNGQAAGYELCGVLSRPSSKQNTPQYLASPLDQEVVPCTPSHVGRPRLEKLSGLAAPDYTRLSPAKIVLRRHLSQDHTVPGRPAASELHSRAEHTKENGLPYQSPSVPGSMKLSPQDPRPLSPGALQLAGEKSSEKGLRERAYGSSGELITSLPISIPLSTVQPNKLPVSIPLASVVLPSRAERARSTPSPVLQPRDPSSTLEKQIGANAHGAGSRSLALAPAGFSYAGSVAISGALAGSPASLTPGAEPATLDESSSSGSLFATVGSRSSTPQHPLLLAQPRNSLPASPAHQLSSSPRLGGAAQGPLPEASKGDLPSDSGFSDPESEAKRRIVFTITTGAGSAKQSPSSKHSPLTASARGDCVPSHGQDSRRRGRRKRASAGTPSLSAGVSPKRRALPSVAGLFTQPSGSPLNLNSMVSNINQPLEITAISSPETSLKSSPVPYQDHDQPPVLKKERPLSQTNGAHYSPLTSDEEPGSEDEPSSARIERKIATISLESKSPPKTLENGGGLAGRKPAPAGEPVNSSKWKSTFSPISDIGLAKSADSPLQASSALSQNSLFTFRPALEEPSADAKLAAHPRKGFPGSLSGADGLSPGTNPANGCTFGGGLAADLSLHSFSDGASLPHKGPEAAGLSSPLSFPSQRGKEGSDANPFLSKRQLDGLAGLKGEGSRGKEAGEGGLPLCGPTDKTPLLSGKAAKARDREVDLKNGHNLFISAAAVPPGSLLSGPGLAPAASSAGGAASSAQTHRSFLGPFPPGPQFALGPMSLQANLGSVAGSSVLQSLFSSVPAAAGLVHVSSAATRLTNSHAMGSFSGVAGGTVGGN
Protocol: as §1

NRMT1 = molecular target: T6, NRMT1 (Homo sapiens, UniProt Q9BV86); test: Methyltransferase Hot Spot radioisotope assay, NRMT1; format: biochemical; conditions: 10-dose, threefold dilution; CC-410 from 300 μM, control from 100 μM; substrate RCC1
T6 sequence (Q9BV86 1-223): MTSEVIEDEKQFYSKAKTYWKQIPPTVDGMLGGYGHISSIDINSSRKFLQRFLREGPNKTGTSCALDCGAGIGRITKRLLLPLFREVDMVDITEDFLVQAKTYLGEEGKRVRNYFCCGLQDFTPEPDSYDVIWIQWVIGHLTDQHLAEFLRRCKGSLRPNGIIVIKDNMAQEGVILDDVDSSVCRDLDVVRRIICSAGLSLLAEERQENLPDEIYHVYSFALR
Protocol: as §1

PRMT5/MEP50 = molecular target: T7, PRMT5/MEP50 (Homo sapiens, UniProt O14744); test: Methyltransferase Hot Spot radioisotope assay, PRMT5/MEP50; format: biochemical; conditions: 10-dose, threefold dilution; CC-410 from 300 μM, control from 100 μM; substrate Histone H2A
T7 construct: purchased Reaction Biology Corporation
T7 sequence (O14744 whole entry, species assumed): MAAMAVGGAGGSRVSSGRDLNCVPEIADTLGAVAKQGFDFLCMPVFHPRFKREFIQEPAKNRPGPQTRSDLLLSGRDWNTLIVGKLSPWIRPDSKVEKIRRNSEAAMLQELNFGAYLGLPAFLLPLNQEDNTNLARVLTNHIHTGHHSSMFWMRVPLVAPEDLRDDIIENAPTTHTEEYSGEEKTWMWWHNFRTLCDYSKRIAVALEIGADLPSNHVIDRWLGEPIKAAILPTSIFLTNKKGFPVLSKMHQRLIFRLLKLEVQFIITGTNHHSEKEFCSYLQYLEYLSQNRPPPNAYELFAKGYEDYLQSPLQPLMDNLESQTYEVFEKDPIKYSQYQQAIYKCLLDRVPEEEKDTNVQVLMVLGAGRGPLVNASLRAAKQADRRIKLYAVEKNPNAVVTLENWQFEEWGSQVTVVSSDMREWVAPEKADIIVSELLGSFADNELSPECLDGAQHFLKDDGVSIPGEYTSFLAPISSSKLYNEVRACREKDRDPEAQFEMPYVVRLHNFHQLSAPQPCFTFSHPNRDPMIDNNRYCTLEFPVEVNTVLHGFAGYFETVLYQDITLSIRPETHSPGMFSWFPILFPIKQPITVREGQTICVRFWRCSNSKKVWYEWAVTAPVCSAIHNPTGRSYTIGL
T7 sequence (Q9BQA1 whole entry partner, species assumed): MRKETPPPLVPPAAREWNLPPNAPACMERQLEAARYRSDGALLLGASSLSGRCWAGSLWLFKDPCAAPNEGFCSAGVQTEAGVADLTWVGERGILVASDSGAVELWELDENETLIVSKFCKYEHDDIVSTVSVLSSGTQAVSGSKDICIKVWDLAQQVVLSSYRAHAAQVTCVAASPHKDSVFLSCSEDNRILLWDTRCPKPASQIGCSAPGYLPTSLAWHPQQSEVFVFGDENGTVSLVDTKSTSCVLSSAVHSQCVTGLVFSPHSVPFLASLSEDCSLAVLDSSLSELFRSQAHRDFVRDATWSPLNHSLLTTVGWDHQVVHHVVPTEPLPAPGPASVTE
Protocol: as §1

3T3-L1 cells [2] = test: Oil Red-O staining of adipocyte differentiation, 3T3-L1; format: cell-based, mouse; conditions: for reduction of adipogenesis (Oil Red-O quantification) compared to untreated control: treatment throughout the differentiation process (during adipogenesis)
Protocol: 3T3-L1 Mouse Embryonic Fibroblasts were purchased from American Type Culture Collection (ATCC CL-173). The cells were propagated and maintained in Dulbecco’s modified Eagle’s medium (DMEM, Gibco) supplemented with 10% calf serum (FCS) at 37 °C in 5% CO2 atmosphere. Subconfluents cells were expanded and utilized for the subsequent experiments at the passages 3–6. To induce differentiation, 2-day post-confluent 3T3-L1 pre-adipocytes were cultured for 48 h with DIM (DMEM supplemented with 10% fetal bovine serum (FBS), 1.0 µM Dexamethasone (G. Biosciences), […] Insulin (Sigma) and 0.5 mM IBMX (Sigma). Two days after induction the DIM medium was removed and the cells were maintained in DMED supplemented with 10% FBS and […] Insulin, which was replaced every 48 h, until the cells became fully differentiated (8–10 days after induction). C3H10T1/2 cells were purchased from American Type Culture Collection (ATCC, clone 8, CCL-226, were grown and induced to differentiate following the same protocol, with cell cultures < 3 passages. Oil Red-O staining was used as previously described. Briefly, cells were fixed for 30 min with 4% formaldehyde, stained with filtered Oil Red solution (0.2% oil red in 40% 2-propanol) and washed 5 times with distilled water. The accumulation of fat droplets in the cells was visualized and photographed under an inverted microscope (DMi1, Leica). The dye was eluted with 100% 2-propanol and quantified spectroscopically at 510 nm (Synergy HT, Bio-Tek).

SMILES: COC(=O)CCC(C)C1CCC2C3C(N)CC4CC(OC(C)=O)CCC4(C)[C@H]3CC(N)C12C (stereo in doubt) [CC-410, Methyl-(4S)-4-((3S,5S,7S,8S,10R,12R,13S,14R,17S)-3-acetoxy-7,12-diamino-10,13-dimethylhexadecahydro-1H-cyclopenta[a]phenanthren-17-yl) pentanoate]
- IC50 (SMYD2): 34.3 µM
- effect on adipogenesis (C3H10T1/2 cells): effectively inhibit adipogenesis
- cell viability (3T3-L1 cells [1]): only a slight reduction in cell viability
- IC50* (M) DNMT1 (DNMT1): no inhibition or compound activity that could not be fitted to an IC50 curve
- IC50* (M) DNMT3a (DNMT3a): no inhibition or compound activity that could not be fitted to an IC50 curve
- IC50* (M) DNMT3b (DNMT3b): no inhibition or compound activity that could not be fitted to an IC50 curve
- IC50 (SET1b Complex; 10-dose, threefold dilution, CC-410 from 300 μM, control from 100 μM, substrate Core Histone, read-out: IC50* (M) SET1b Complex): 0.000121 M
- IC50 (SET1b Complex; text and Fig. 4D curve fit, read-out: IC50 for SET1b Complex): 0.00012 M
- IC50* (M) DOT1L (DOT1L): no inhibition or compound activity that could not be fitted to an IC50 curve
- IC50* (M) NRMT1 (NRMT1): no inhibition or compound activity that could not be fitted to an IC50 curve
- IC50* (M) PRMT5/MEP50 (PRMT5/MEP50): no inhibition or compound activity that could not be fitted to an IC50 curve
- reduction of adipogenesis (Oil Red-O quantification) compared to untreated control (3T3-L1 cells [2]; 15 µM): 60%
- reduction of adipogenesis (Oil Red-O quantification) compared to untreated control (3T3-L1 cells [2]; 25 µM): 80%
- inhibition of adipogenesis (3T3-L1 cells [2]; administered in the first 20 h after hormonal induction, highest concentration tested): 50%
- effect on adipogenesis (3T3-L1 cells [2]; continuously dispensed after the early phase of adipogenesis): no anti-adipogenic effect was evident
- effect on adipogenesis (3T3-L1 cells [2]; treatment during the 48 h of DEX stimulation, followed by IBMX 48 h): strongly impaired adipogenesis
- effect on adipogenesis (3T3-L1 cells [2]; treatment during the early phase (from T0 to 48 h)): markedly reduced adipogenesis, with levels analogous to continuous treatment
